According to US20140206681A1, “BTK INHIBITORS” (priority 2013, published 2014):
pIC50: −log10 of the molar value. Like-named read-outs stand apart in the source and are kept apart here.

Biological target: T1, BTK enzyme (recombinant full-length BTK, hBTK) (Homo sapiens, UniProt Q06187)
T1 construct: recombinant protein from baculovirus-transfected Sf9 cells: full-length BTK, 6HIS-tag cleaved; 6HIS (cleaved yes); made in house; host or cells: baculovirus-transfected Sf9 cells
Assay: BTK enzyme activity assay, LANCE TR-FRET
Format: biochemical
Conditions: 50 pM hBTK, 2 μM biotin-A5-peptide, 25 μM ATP, 60 min compound & enzyme incubation

[1] = read-out: IC50 BTK activity value

T1 sequence (Q06187 whole entry): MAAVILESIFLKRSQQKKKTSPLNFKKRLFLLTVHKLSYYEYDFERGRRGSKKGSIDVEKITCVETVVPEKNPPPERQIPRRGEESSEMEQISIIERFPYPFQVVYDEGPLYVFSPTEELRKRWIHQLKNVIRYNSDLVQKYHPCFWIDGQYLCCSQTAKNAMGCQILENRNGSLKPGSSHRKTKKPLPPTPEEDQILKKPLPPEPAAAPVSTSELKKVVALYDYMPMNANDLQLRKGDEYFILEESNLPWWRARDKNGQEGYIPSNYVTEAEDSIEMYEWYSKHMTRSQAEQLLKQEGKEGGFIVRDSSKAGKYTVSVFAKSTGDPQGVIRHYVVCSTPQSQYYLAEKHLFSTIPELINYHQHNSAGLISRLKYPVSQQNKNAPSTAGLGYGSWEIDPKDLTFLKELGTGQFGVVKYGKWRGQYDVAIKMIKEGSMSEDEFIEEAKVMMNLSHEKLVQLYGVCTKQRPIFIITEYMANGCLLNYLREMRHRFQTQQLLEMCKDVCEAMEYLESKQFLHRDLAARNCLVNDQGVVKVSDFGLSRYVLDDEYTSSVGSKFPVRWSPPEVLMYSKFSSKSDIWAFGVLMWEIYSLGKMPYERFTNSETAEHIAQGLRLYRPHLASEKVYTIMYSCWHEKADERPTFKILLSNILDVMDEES

Row | Compound | pIC50 [1] | pIC50 (IC50 BTK activity value)
1 | Nc1nccn2c([C@H]3CC[C@@H]4COC(=O)N4C3)nc(-c3ccc(C(=O)Nc4cc(C(F)(F)F)ccn4)cc3F)c12 (stereo in doubt) [Example 13, 4-(8-amino-3-((6S,8aR)-3-oxohexahydro-1H-oxazolo[3,4-a]pyridin-6-yl)imidazo[1,5-a]pyrazin-1-yl)-3-fluoro-N-(4-(trifluoromethyl)pyridin-2-yl)benzamide] | 8.89 | 
2 | Nc1nccn2c([C@H]3CC[C@H]4COC(=O)N4C3)nc(-c3ccc(C(=O)Nc4cc(C(F)(F)F)ccn4)cc3)c12 [Example 1, 4-(8-amino-3-((6S,8aS)-3-oxohexahydro-1H-oxazolo[3,4-a]pyridin-6-yl)imidazo[1,5-a]pyrazin-1-yl)-N-(4-(trifluoromethyl)pyridin-2-yl)benzamide] |  | 8.26
3 | Nc1nccn2c([C@@H]3CC[C@@H]4COC(=O)N4C3)nc(-c3ccc(C(=O)Nc4cc(C(F)(F)F)ccn4)cc3)c12 [Example 2, 4-(8-amino-3-((6R,8aR)-3-oxohexahydro-1H-oxazolo[3,4-a]pyridin-6-yl)imidazo[1,5-a]pyrazin-1-yl)-N-(4-(trifluoromethyl)pyridin-2-yl)benzamide] |  | 7.81
4 | Nc1nccn2c([C@@H]3CC[C@H]4CCC(=O)N4C3)nc(-c3ccc(C(=O)Nc4cc(OC5CC5)ccn4)cc3)c12 [Example 5, 4-(8-amino-3-((6R,8aS)-3-oxooctahydroindolizin-6-yl)imidazo[1,5-a]pyrazin-1-yl)-N-(4-cyclopropoxypyridin-2-yl)benzamide] | 9.62 | 
5 | Nc1nccn2c([C@@H]3CC[C@H]4CCC(=O)N4C3)nc(-c3ccc(C(=O)Nc4cc(C5CCC5)ccn4)cc3)c12 [Example 7, 4-(8-amino-3-((6R,8aS)-3-oxooctahydroindolizin-6-yl)imidazo[1,5-a]pyrazin-1-yl)-N-(4-cyclobutylpyridin-2-yl)benzamide] | 7.22 | 
6 | Nc1nccn2c([C@@H]3CC[C@H]4COC(=O)N4C3)nc(-c3ccc(C(=O)Nc4cc(C(F)(F)F)ccn4)cc3F)c12 [Example 12, 4-(8-amino-3-((6R,8aS)-3-oxohexahydro-1H-oxazolo[3,4-a]pyridin-6-yl)imidazo[1,5-a]pyrazin-1-yl)-3-fluoro-N-(4-(trifluoromethyl)pyridin-2-yl)benzamide] | 10.08 | 
7 | Nc1nccn2c([C@@H]3CC[C@H]4CCC(=O)N4C3)nc(-c3ccc(C(=O)Nc4cc(C(F)F)ccn4)cc3F)c12 [Example 14, 4-{8-amino-3-[(6R,8aS)-3-oxooctahydroindolizin-6-yl]imidazo[1,5-a]pyrazin-1-yl}-N-[4-(difluoromethyl)pyridin-2-yl]-3-fluorobenzamide] | 9.92 | 
8 | Nc1nccn2c([C@@H]3CC[C@H]4CCC(=O)N4C3)nc(-c3ccc(C(=O)Nc4cc(C(F)F)ccn4)cc3)c12 [Example 17] | 9.51 | 
9 | Cc1cc(-c2nc([C@@H]3CC[C@H]4CCC(=O)N4C3)n3ccnc(N)c23)ccc1C(=O)Nc1cc(C(F)(F)F)ccn1 [Example 22, 4-{8-amino-3-[(6R,8aS)-3-oxooctahydroindolizin-6-yl]imidazo[1,5-a]pyrazin-1-yl}-2-methyl-N-[4-(trifluoromethyl)pyridin-2-yl]benzamide] | 9.39 | 
10 | CC(F)(F)c1ccnc(NC(=O)c2ccc(-c3nc([C@@H]4CC[C@H]5CCC(=O)N5C4)n4ccnc(N)c34)cc2F)c1 [Example 25, 4-{8-amino-3-[(6R,8aS)-3-oxooctahydroindolizin-6-yl]imidazo[1,5-a]pyrazin-1-yl}-N-[4-(1,1-difluoroethyl)pyridin-2-yl]-2-fluorobenzamide] | 9.27 | 
11 | Nc1nccn2c([C@@H]3CC[C@H]4CCC(=O)N4C3)nc(-c3ccc(C(=O)Nc4cc(C(F)F)ccn4)c(F)c3)c12 [Example 26, 4-{8-amino-3-[(6R,8aS)-3-oxooctahydroindolizin-6-yl]imidazo[1,5-a]pyrazin-1-yl}-N-[4-(difluoromethyl)pyridin-2-yl]-2-fluorobenzamide] | 8.82 | 
12 | Nc1nccn2c([C@@H]3CC[C@H]4CCC(=O)N4C3)nc(-c3ccc(C(=O)Nc4cc(C5CC5)ccn4)c(F)c3)c12 [Example 27, 4-{8-amino-3-[(6R,8aS)-3-oxooctahydroindolizin-6-yl]imidazo[1,5-a]pyrazin-1-yl}-N-(4-cyclopropylpyridin-2-yl)-2-fluorobenzamide] | 8.96 | 
13 | Cc1cc(-c2nc([C@@H]3CC[C@H]4CCC(=O)N4C3)n3ccnc(N)c23)ccc1C(=O)Nc1cc(C2CC2)ccn1 [Example 28, 4-{8-amino-3-[(6R,8aS)-3-oxooctahydroindolizin-6-yl]imidazo[1,5-a]pyrazin-1-yl}-N-(4-cyclopropylpyridin-2-yl)-2-methylbenzamide] | 9.19 | 
14 | Nc1nccn2c([C@@H]3CC[C@H]4CCC(=O)N4C3)nc(-c3ccc(C(=O)Nc4cc(C5(F)COC5)ccn4)cc3)c12 [Example 29, 4-{8-amino-3-[(6R,8aS)-3-oxooctahydroindolizin-6-yl]imidazo[1,5-a]pyrazin-1-yl}-N-[4-(3-fluorooxetan-3-yl)pyridin-2-yl]benzamide] | 8.72 | 
15 | CC(C)(F)c1ccnc(NC(=O)c2ccc(-c3nc([C@@H]4CC[C@H]5CCC(=O)N5C4)n4ccnc(N)c34)cc2)c1 [Example 30, 4-{8-amino-3-[(6R,8aS)-3-oxooctahydroindolizin-6-yl]imidazo[1,5-a]pyrazin-1-yl}-N-[4-(1-fluoro-1-methylethyl)pyridin-2-yl]benzamide] | 9.07 | 
16 | C[C@H]1OC(=O)N2C[C@H](c3nc(-c4ccc(C(=O)Nc5cc(C6CC6)ccn5)cc4F)c4c(N)nccn34)CC[C@@H]12 [Example 32, 4-{8-amino-3-[(1R,6R,8aS)-1-methyl-3-oxohexahydro[1,3]oxazolo[3,4-a]pyridin-6-yl]imidazo[1,5-a]pyrazin-1-yl}-N-(4-cyclopropylpyridin-2-yl)-3-fluorobenzamide] | 9.68 | 
17 | N#Cc1ccnc(NC(=O)c2ccc(-c3nc([C@@H]4CC[C@H]5CCC(=O)N5C4)n4ccnc(N)c34)cc2F)c1 [Example 34, 4-{8-amino-3-[(6R,8aS)-3-oxooctahydroindolizin-6-yl]imidazo[1,5-a]pyrazin-1-yl}-N-(4-cyanopyridin-2-yl)-2-fluorobenzamide] | 8.60 | 
18 | COc1cc(C(=O)Nc2cc(C#N)ccn2)ccc1-c1nc([C@@H]2CC[C@H]3CCC(=O)N3C2)n2ccnc(N)c12 [Example 35, 4-{8-amino-3-[(6R,8aS)-3-oxooctahydroindolizin-6-yl]imidazo[1,5-a]pyrazin-1-yl}-N-(4-cyanopyridin-2-yl)-3-methoxybenzamide] | 8.96 | 
19 | Cc1cc(-c2nc([C@@H]3CC[C@H]4CCC(=O)N4C3)n3ccnc(N)c23)ccc1C(=O)Nc1cc(C#N)ccn1 [Example 36, 4-{8-amino-3-[(6R,8aS)-3-oxooctahydroindolizin-6-yl]imidazo[1,5-a]pyrazin-1-yl}-N-(4-cyanopyridin-2-yl)-2-methylbenzamide] | 9.01 | 
20 | C[C@@H]1OC(=O)N2C[C@H](c3nc(-c4ccc(C(=O)Nc5cc(C6CC6)ccn5)cc4F)c4c(N)nccn34)CC[C@@H]12 [Example 37, 4-{8-amino-3-[(1S,6R,8aS)-1-methyl-3-oxohexahydro[1,3]oxazolo[3,4-a]pyridin-6-yl]imidazo[1,5-a]pyrazin-1-yl}-N-(4-cyclopropylpyridin-2-yl)-3-fluorobenzamide] | 9.41 | 
21 | Nc1nccn2c([C@@H]3CC[C@H]4CCC(=O)N4C3)nc(-c3ccc(C(=O)Nc4cc(OC5CC5)ccn4)cc3F)c12 [Example 43, 4-{8-amino-3-[(6R,8aS)-3-oxooctahydroindolizin-6-yl]imidazo[1,5-a]pyrazin-1-yl}-N-[4-(cyclopropyloxy)pyridin-2-yl]-3-fluorobenzamide] | 9.89 | 
22 | Nc1nccn2c([C@@H]3CC[C@@H]4CNCC(=O)N4C3)nc(-c3ccc(C(=O)Nc4cc(C(F)(F)F)ccn4)cc3)c12 [Example 54, 4-{8-amino-3-[(7R,9aR)-4-oxooctahydro-2H-pyrido[1,2-a]pyrazin-7-yl]imidazo[1,5-a]pyrazin-1-yl}-N-[4-(trifluoromethyl)pyridin-2-yl]benzamide] | 8.02 | 
23 | Nc1nccn2c([C@@H]3CC[C@H]4COCCN4C3)nc(-c3ccc(C(=O)Nc4cc(C(F)(F)F)ccn4)cc3)c12 [Example 55, 4-{8-amino-3-[(7R,9aS)-octahydropyrido[2,1-c][1,4]oxazin-7-yl]imidazo[1,5-a]pyrazin-1-yl}-N-[4-(trifluoromethyl)pyridin-2-yl]benzamide] | 9.52 | 
24 | C[C@@H]1CC(=O)N2C[C@H](c3nc(-c4ccc(C(=O)Nc5cc(C(F)(F)F)ccn5)cc4)c4c(N)nccn34)CC[C@@H]12 [Example 62, 4-{8-amino-3-[(1R,6R,8aS)-1-methyl-3-oxooctahydroindolizin-6-yl]imidazo[1,5-a]pyrazin-1-yl}-N-[4-(trifluoromethyl)pyridin-2-yl]benzamide] | 8.17 | 
25 | Nc1nccn2c([C@@H]3CC[C@@H]4C[C@H](O)C(=O)N4C3)nc(-c3ccc(C(=O)Nc4cc(C(F)(F)F)ccn4)cc3)c12 [Example 75, 4-{8-amino-3-[(2S,6R,8aR)-2-hydroxy-3-oxooctahydroindolizin-6-yl]imidazo[1,5-a]pyrazin-1-yl}-N-[4-(trifluoromethyl)pyridin-2-yl]benzamide] | 8.12 | 
26 | CC(C)(C(=O)O)N1CC(=O)N2C[C@H](c3nc(-c4ccc(C(=O)Nc5cc(C(F)(F)F)ccn5)cc4)c4c(N)nccn34)CC[C@H]2C1 [Example 86, 2-((7R,9aS)-7-(8-amino-1-(4-((4-(trifluoromethyl)pyridin-2-yl)carbamoyl)phenyl)imidazo[1,5-a]pyrazin-3-yl)-4-oxohexahydro-1H-pyrido[1,2-a]pyrazin-2(6H)-yl)-2-methylpropanoic acid] | 9.35 | 
27 | CC1(C)C[C@@H]2CC[C@@H](c3nc(-c4ccc(C(=O)Nc5cc(C(F)(F)F)ccn5)cc4)c4c(N)nccn34)CN2C1=O [Example 95, 4-{8-amino-3-[(6R,8aS)-2,2-dimethyl-3-oxooctahydroindolizin-6-yl]imidazo[1,5-a]pyrazin-1-yl}-N-[4-(trifluoromethyl)pyridin-2-yl]benzamide] | 7.94 | 
